Test system: Pseudomonas aeruginosa infection
Experiment: Self-administered inhalation by a cystic fibrosis patient with Pseudomonas aeruginosa infection: patient-reported signs of infection
Type: in vivo, human
Conditions: for initial response of asthma and coughing to the antibiotic regimen: ciprofloxacin 2×1000 mg, Zithromax 1×500 mg daily and TOBI 2×5mg given together; for severity of asthma, frequency of coughing and quantity of expectorated mucus after three months on the antibiotics: ciprofloxacin, Zithromax and TOBI given together
Excerpt: I. A cystic fibrosis patient described their asthma as increasingly severe and being present constantly during the day. They reported being more short-breathed than previously, often experiencing difficulty breathing after walking only 50 meters. They also reported an increasingly persistent cough, which escalated to almost every minute. They also described coughing up a “fluorescent light green” mucus. The patient further reported losing about 3.5 kg of weight.
After a lab test by their cystic fibrosis doctor, the patient was diagnosed with a Pseudomonas aeruginosa infection. They were prescribed the antibiotics ciprofloxacin (2×1000 mg), Zithromax® (azithromycin, 1×500 mg daily) and TOBI, an aerosolized form of tobramycin (2×5mg). […]
The patient reports that during the past 3 months they have resumed using the lactoferrin/OPC combination, as well as TOBI twice a day and Zithromax, and pulmozyme.

Row | Compound | initial response of asthma and coughing to the antibiotic regimen | severity of asthma, frequency of coughing and quantity of expectorated mucus after three months on the antibiotics
1 | CC[C@H]1OC(=O)[C@H](C)[C@@H](O[C@H]2C[C@@](C)(OC)[C@@H](O)[C@H](C)O2)[C@H](C)[C@@H](O[C@@H]2O[C@H](C)C[C@H](N(C)C)[C@H]2O)[C@](C)(O)C[C@@H](C)CN(C)[C@H](C)[C@@H](O)[C@]1(C)O [Zithromax, azithromycin] | initial noticeable decrease in both the asthma and coughing | began increasing
2 | O=C(O)c1cn(C2CC2)c2cc(N3CCNCC3)c(F)cc2c1=O [ciprofloxacin] | initial noticeable decrease in both the asthma and coughing | began increasing

Reference: US20110038917A1, “THERAPEUTIC COMPOSITIONS AND METHODS FOR TREATING GRAM-NEGATIVE BACTERIAL INFECTIONS” (RQ Bioscience, Inc., priority 2007, published 2011)
